± gives the expanded uncertainty stated by the source.
Conditions: Liquid, Vibrating tube method

CCCCCCCCCC [decane]
mass density [kg/m3]
Conditions	283.15 K	288.15 K	293.15 K	298.15 K	303.15 K	308.15 K	313.15 K	318.15 K	323.15 K	328.15 K
100 kPa	737.4 ± 0.44	733.69 ± 0.44	729.94 ± 0.44	726.19 ± 0.44	722.46 ± 0.44	718.65 ± 0.44	714.79 ± 0.44	710.99 ± 0.44	707.17 ± 0.43	703.3 ± 0.43
5000 kPa	740.81 ± 0.45	737.19 ± 0.45	733.53 ± 0.45	729.88 ± 0.45	726.23 ± 0.45	722.52 ± 0.45	718.83 ± 0.45	715.08 ± 0.45	711.4 ± 0.45	707.67 ± 0.45
10000 kPa	744.17 ± 0.47	740.63 ± 0.47	737.08 ± 0.47	733.52 ± 0.47	729.98 ± 0.47	726.36 ± 0.47	722.76 ± 0.47	719.13 ± 0.48	715.55 ± 0.48	711.97 ± 0.48
15000 kPa	747.39 ± 0.49	743.93 ± 0.49	740.5 ± 0.5	737 ± 0.5	733.55 ± 0.5	730.01 ± 0.5	726.52 ± 0.5	722.99 ± 0.5	719.49 ± 0.5	716.03 ± 0.5
20000 kPa	750.49 ± 0.52	747.14 ± 0.52	743.76 ± 0.52	740.37 ± 0.52	736.98 ± 0.52	733.55 ± 0.52	730.14 ± 0.53	726.69 ± 0.53	723.28 ± 0.53	719.87 ± 0.53
25000 kPa	753.52 ± 0.54	750.22 ± 0.54	746.92 ± 0.55	743.6 ± 0.55	740.29 ± 0.55	737.01 ± 0.55	733.61 ± 0.55	730.22 ± 0.55	726.9 ± 0.56	723.57 ± 0.56
30000 kPa	756.43 ± 0.57	753.19 ± 0.57	749.98 ± 0.57	746.72 ± 0.57	743.46 ± 0.58	740.13 ± 0.58	736.95 ± 0.58	733.65 ± 0.58	730.37 ± 0.59	727.1 ± 0.59
35000 kPa	759.27 ± 0.59	756.11 ± 0.6	752.94 ± 0.6	749.72 ± 0.6	746.54 ± 0.61	743.26 ± 0.61	740.17 ± 0.61	736.93 ± 0.61	733.71 ± 0.62	730.51 ± 0.62
40000 kPa	762.02 ± 0.62	758.92 ± 0.62	755.79 ± 0.63	752.67 ± 0.63	749.5 ± 0.64	746.32 ± 0.64	743.25 ± 0.64	740.05 ± 0.65	736.93 ± 0.65	733.79 ± 0.65

COC(=O)OC [dimethyl carbonate]
mass density [kg/m3]
Conditions	283.15 K	288.15 K	293.15 K	298.15 K	303.15 K	308.15 K	313.15 K	318.15 K	323.15 K	328.15 K
100 kPa	1083.17 ± 0.63	1076.43 ± 0.62	1069.76 ± 0.62	1063.1 ± 0.62	1056.41 ± 0.61	1049.66 ± 0.61	1042.86 ± 0.61	1036.04 ± 0.6	1029.21 ± 0.6	1022.24 ± 0.6
5000 kPa	1087.33 ± 0.63	1080.8 ± 0.63	1074.22 ± 0.62	1067.7 ± 0.62	1061.17 ± 0.62	1054.59 ± 0.61	1047.94 ± 0.61	1041.3 ± 0.61	1034.63 ± 0.6	1027.92 ± 0.6
10000 kPa	1091.39 ± 0.63	1085.02 ± 0.63	1078.58 ± 0.63	1072.21 ± 0.62	1065.82 ± 0.62	1059.39 ± 0.62	1052.91 ± 0.61	1046.44 ± 0.61	1039.95 ± 0.61	1033.45 ± 0.6
15000 kPa	1095.34 ± 0.64	1089.07 ± 0.64	1082.76 ± 0.63	1076.52 ± 0.63	1070.29 ± 0.63	1064 ± 0.62	1057.67 ± 0.62	1051.36 ± 0.61	1045.04 ± 0.61	1038.69 ± 0.61
20000 kPa	1099.13 ± 0.65	1093 ± 0.64	1086.83 ± 0.64	1080.7 ± 0.63	1074.59 ± 0.63	1068.43 ± 0.63	1062.22 ± 0.62	1056.08 ± 0.62	1049.91 ± 0.61	1043.71 ± 0.61
25000 kPa	1102.79 ± 0.65	1096.79 ± 0.65	1090.73 ± 0.64	1084.74 ± 0.64	1078.74 ± 0.63	1072.65 ± 0.63	1066.6 ± 0.63	1060.6 ± 0.62	1054.58 ± 0.62	1048.53 ± 0.62
30000 kPa	1106.39 ± 0.66	1100.48 ± 0.65	1094.5 ± 0.65	1088.62 ± 0.65	1082.75 ± 0.64	1076.8 ± 0.64	1070.82 ± 0.63	1064.95 ± 0.63	1059.07 ± 0.62	1053.14 ± 0.62
35000 kPa	1109.85 ± 0.67	1104.03 ± 0.66	1098.19 ± 0.66	1092.39 ± 0.65	1086.6 ± 0.65	1080.78 ± 0.64	1074.93 ± 0.64	1069.15 ± 0.63	1063.39 ± 0.63	1057.57 ± 0.62
40000 kPa	1113.17 ± 0.68	1107.5 ± 0.67	1101.74 ± 0.67	1096.04 ± 0.66	1090.35 ± 0.65	1084.63 ± 0.65	1078.87 ± 0.64	1073.21 ± 0.64	1067.56 ± 0.63	1061.87 ± 0.63
